For orientation: inhibition means the change of the read-out against control, counted positive when it falls.

In one series the test system is isolated rat adipocytes. Briefly: Hexose transport (2-deoxyglucose uptake) in isolated rat adipocytes. In kind it is cell-based. On the set-up: stimulation of 2-deoxyglucose uptake, agent alone: dose or concentration left out as unconfirmed. The following applies: for glucose transport (2-DG uptake): 45 min preincubation of fat cells with increasing concentrations; for stimulation of 2-deoxyglucose uptake, agent alone: benzylamine or orthovanadate alone, 10-min uptake. The protocol: Adipocyte isolation. […] Adipose cells isolated in such a way were used in subsequent studies.
Hexose transport. After a preincubation period of 45 min at 37° C. in vials containing 400 μl of cell suspension in KRBH with the tested products, [^3H]-2-deoxyglucose was added at a final concentration of 0.1 mM (approx. 1,300,000 d.p.m./vial). […] After centrifugation, the fat cells (upper part of the tubes) were placed in scintillation vials and the incorporated radioactivity was counted.

A further series has as its system GLUT4. Details: increase in the abundance of GLUT4 in plasma membrane preparations / abundance of GLUT4 in plasma membranes, agent alone: dose or concentration left out as unconfirmed. The following applies: for abundance of GLUT4 in plasma membranes, agent alone: benzylamine or orthovanadate alone; for amount of GLUT4 protein in the plasma membrane (PM): n=3, orthovanadate 0.1 mM.

The subject of series [1] is streptozotocin-induced diabetic rats. Description: Chronic administration in streptozotocin-induced diabetic rats. In kind it is in vivo, rat. The following applies: for food and water consumption / weight of epididymal adipose tissue (adiposity): chronic treatment of diabetic rats. From the text:
A group of animals was also subjected to daily i.p. injection of vanadate (50 μmol/kg body wt) for two weeks.
In other studies, rats were daily injected intraperitoneally with 25 μmol/kg vanadate for the first week and with 50 μmol/kg for the second week.

Where [2] appears, read: vanadate i.p. 25 μmol/kg first week and 50 μmol/kg second week, benzylamine 84 μmol/kg, FIG. 6, FIG. 7.
The mark [3] stands for this setting: 1 mM H2O2, preincubation 45 min, n=23.

Method for GLUT4: To verify whether the stimulation of glucose transport in rat adipocytes may be explained by a translocation of the insulin-sensitive glucose transporters from an internal site to the plasma membrane, as it is known for insulin, the amount of GLUT4 protein was determined in plasma membrane (PM) and low density microsome (LDM) fractions.

On to `CNC[C@H](O)c1cccc(O)c1` [phenylephrine], for which the “glucose transport (2-DG uptake)” value in the series with isolated rat adipocytes (5-min 2-DG uptake, FIG. 1) is listed as “not activated”.

Consider `NCc1ccccc1` [benzylamine], for which, in the series on GLUT4 (45 minutes incubation), the “abundance of GLUT4 in plasma membranes, agent alone” value was “did not alter”. In addition, in the series on isolated rat adipocytes (FIG. 3), the “stimulation of 2-deoxyglucose uptake, agent alone” value was “no stimulatory effect”. In series [1], the “food and water consumption” value was “not detected”; the “weight of epididymal adipose tissue (adiposity)” value is “not detected”. In series [1] (setting [2]), the glycemia result is recorded as “remained hyperglycemic”.

With `NNC(N)=O` [semicarbazide], the “effect on glucose transport stimulated by 1 mM hydrogen peroxide plus 0.1 mM orthovanadate” value in the series on isolated rat adipocytes is “unaffected”. In addition, in the series with isolated rat adipocytes (Rattus norvegicus, Adipocyte, read-out: inhibition of the glucose transport promoted by 1 mM tyramine plus orthovanadate), the inhibition at 100 µM came out at 59 ± 7%. Further, in the series on isolated rat adipocytes (semicarbazide (1 mM), FIG. 3), the “effect on stimulation of 2-deoxyglucose uptake by benzylamine and orthovanadate” value was “abolished”.

For `NCCc1c[nH]c2ccc(O)cc12` [serotonin], the “glucose transport (2-DG uptake)” value in the series with isolated rat adipocytes (5-min 2-DG uptake, FIG. 1) was “not activated”.

On to `OO` [H2O2, hydrogen peroxide], for which, in the series with isolated rat adipocytes (setting [3]), the “effect relative to the maximal insulin effect” value stood at 46% and the “factor multiplying basal hexose transport” value came out at 5.0±0.8 fold. In addition, the “glucose transport (2-DG uptake)” value in the series on isolated rat adipocytes (5-min 2-DG uptake, FIG. 1) was “dose-dependently stimulated”.

For sodium orthovanadate, in the series on GLUT4 (45 minutes incubation), the “abundance of GLUT4 in plasma membranes, agent alone” value is given as “did not alter”. Moreover, the “amount of GLUT4 protein in the plasma membrane (PM)” value in the series on GLUT4 (Western blot) was determined as 103±8%. Besides, the “stimulation of glucose transport as % of that of 100 nM insulin” value with isolated rat adipocytes (1 mM tyramine, 0.1 mM orthovanadate, 100 nM insulin, n=40) is 5±1%. Further, the “stimulation of 2-deoxyglucose uptake, agent alone” value in the series with isolated rat adipocytes (FIG. 3) is “did not stimulate”. Further, the “effect on basal or insulin-stimulated glucose transport” value in the series on isolated rat adipocytes (orthovanadate alone 0.1 mM, FIG. 2) is recorded as “did not affect”. Besides, in series [1], the “food and water consumption” value is listed as “not detected”; the “weight of epididymal adipose tissue (adiposity)” value was “not detected”. Further, the glycemia entry in series [1] (vanadate 50 μmol/kg daily i.p. for two weeks, benzylamine 84 μmol/kg/day by osmotic minipumps, FIG. 5) was “moderate reduction”. For the same molecule, the glycemia result in series [1] (setting [2]) is “remained hyperglycemic”.

As to “insulin: hormone used as positive control for glucose transport and GLUT4 translocation”, in the series with GLUT4, the “GLUT4 abundance in light microsomes” value is “reduction”. Further, the “increase in the abundance of GLUT4 in plasma membrane preparations” value with GLUT4 (45 minutes incubation) is recorded as 3.3 fold. In addition, in the series with GLUT4 (Example 2, plasma membrane fraction), the “content of β1-integrin, a constitutive PM protein” value is “without any significant change”. The “plasma membrane marker β1-integrin” value in the series on GLUT4 (Example 4, 45 minutes incubation) is “remained unaltered”. Moreover, the “decrease of basal GLUT4 content of LDM” value in the series with GLUT4 (Western blot, low density microsomes) is recorded as 29%. Moreover, the “amount of GLUT4 protein in the plasma membrane (PM)” value with GLUT4 (Western blot) was 252±43%. Further, the “increase of basal 2-DG uptake” value in the series with isolated rat adipocytes (insulin, 45 min preincubation, 5-min 2-DG uptake, FIG. 1) is given as “twelve-fold”.

Turning to `NCCc1ccc(O)cc1` [tyramine], the “glucose transport (2-DG uptake)” value with isolated rat adipocytes (5-min 2-DG uptake, FIG. 1) is recorded as “not activated”. Besides, in the series on isolated rat adipocytes (not shown), the “synergism on glucose transport with low, ineffective doses of insulin (10 pM) or hydrogen peroxide (0.01 mM)” value is “no synergism”.

The record behind these values is patent US20040224031A1, “Combination of amines and vanadium (IV)/(V) compounds for the treatment and/or prevention of diabetes mellitus” (priority 2003, published 2004).
